Experimental data as given in PMC9250534, “Synthesis and direct assay of large macrocycle diversities by combinatorial late-stage modification at picomole scale” (Nature Communications, 2022).
Where “and” joins values, the source holds several entries; their conditions need not be identical. Equal entries are not always repeated. Where two headings read alike, the source gives them in different places.

Columns and labels:
[1] = target: MDM2 (Homo sapiens, UniProt Q00987); assay: Competition binding of M10 and nutlin-3a (F-M10 or FP53 probe displacement from MDM2, FP); conditions: FP competition experiment
Sequence of MDM2 (Q00987 whole entry): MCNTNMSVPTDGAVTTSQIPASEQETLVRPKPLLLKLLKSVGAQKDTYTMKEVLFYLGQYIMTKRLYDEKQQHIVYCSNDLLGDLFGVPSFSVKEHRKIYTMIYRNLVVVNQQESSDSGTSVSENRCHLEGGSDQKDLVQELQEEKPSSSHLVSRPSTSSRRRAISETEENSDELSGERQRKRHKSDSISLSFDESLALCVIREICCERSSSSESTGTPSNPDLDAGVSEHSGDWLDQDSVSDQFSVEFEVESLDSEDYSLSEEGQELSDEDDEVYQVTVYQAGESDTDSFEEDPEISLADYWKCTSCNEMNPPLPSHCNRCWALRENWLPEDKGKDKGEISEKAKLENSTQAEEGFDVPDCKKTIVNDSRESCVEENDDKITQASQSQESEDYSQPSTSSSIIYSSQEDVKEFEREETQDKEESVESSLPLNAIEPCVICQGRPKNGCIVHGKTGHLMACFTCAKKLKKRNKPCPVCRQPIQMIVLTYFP
Method: With the fluorescein conjugate, we also performed a competition experiment with nutlin-3a that binds to a defined hydrophobic pocket of MDM2[34] and is a precursor of nutlin-based clinical candidates.
Supplementary Figure 13. Studying the binding site of M10 by competition binding
by fluorescence polarization. The displacement was measured in two independent experiments
The displacement was measured in two

[2] = target: T1, thrombin (Homo sapiens, UniProt P00734); assay: Determination of Kis of purified thrombin inhibitors (IC50, Cheng-Prusoff); assay type: biochemical; conditions: for % thrombin activity: replicates 1-3
T1 construct: consists of two polypeptide chains of 36 (light chain) and 259 amino acid
Method: Purified thrombin inhibitors (10 mM in DMSO) were diluted to 80 μM in 125 μL of Tris buffer (100 mM Tris-Cl, 150 mM NaCl, 10 mM MgCl2, 1 mM CaCl2) containing 0.1% w/v BSA, 0.01% v/v Triton-X100 and […]. The macrocycles were diluted two-fold in Tris buffer containing 0.1% w/v BSA, 0.01% v/v Triton-X100 and 1% DMSO in buffer. The thrombin activity was measured in 96-well plates (Greiner, 655101) and the residual activity calculated as described above in the assay used to measure activities of HPLC-separated fractions of screening hits.
Supplementary Figure 7. Thrombin inhibitors M1 to M5. a, Chemical structures and analytical HPLC chromatograms obtained using a 0-100% MeCN/H2O gradient over 15 minutes. b, For all macrocycles, an 18 -point, two-fold serial dilution was performed in 50 µL volumes. Thrombin was added (50 µL, 2 nM final conc.), followed 10 minutes later by fluorogenic substrate Z -Gly-Gly-Arg-AMC (50 µL, 50 µM final conc.). The increase in fluorescence was measured over 30 minutes.
Residual thrombin activity was determined by dividing the slope of fluorescenc e intensity over time for each well by the slope of control wells without macrocycle. Mean values and SDs are indicated for three independent thrombin inhibition measurements.
(1 picture or pasted object on this page, not shown here)

[3] = target: T1, thrombin; assay: Thrombin inhibition screen of crude macrocycle reactions (residual thrombin activity, fluorogenic substrate Z-Gly-Gly-Arg-AMC); assay type: biochemical; conditions: 10 µM macrocycle concentration, macrocycles containing acid 14, crude reaction
Procedure, shortened: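 Each crude macrocycle (10 μM) was preincubated 10 min at room temperature with thrombin (2 nM final) in Tris-Cl pH 7.4 containing NaCl, MgCl2, CaCl2, 0.1% BSA, 0.01% Triton X-100 and 0.6% DMSO. Z-Gly-Gly-Arg-AMC (50 μM final) was then added. Inhibition came from fluorescence slopes relative to DMSO-only controls.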

[4] = thrombin, average of 3 replicates, read-out: IC50 (nM) Average
[5] = thrombin, replicate 1, Cheng-Prusoff, read-out: Ki (nM) Replicate 1
[6] = thrombin, replicate 1, read-out: IC50 (nM) Replicate 1
[7] = thrombin, replicate 2, Cheng-Prusoff, read-out: Ki (nM) Replicate 2
[8] = thrombin, replicate 2, read-out: IC50 (nM) Replicate 2
[9] = thrombin, replicate 3, Cheng-Prusoff, read-out: Ki (nM) Replicate 3
[10] = thrombin, replicate 3, read-out: IC50 (nM) Replicate 3

Compound: nutlin-3a [reference compound]
- competition with fluorescein conjugate of M10 for MDM2 binding [1]: did not compete

Compound: CC(C)[C@H]1NC(=O)CCSSCCNC(=O)[C@H](CNC(=O)c2ccc(Cl)s2)NC(=O)c2cccc(c2)CNC1=O [M1]
- % thrombin activity ([2]; Log [Macrocycle] M -8.8): 98.0% and 96.9% and 96.6%
- % thrombin activity ([2]; Log [Macrocycle] M -9.1): 99.2% and 98.3% and 98.9%
- % thrombin activity ([2]; Log [Macrocycle] M -9.4): 99.9% and 99.1% and 103.5%
- % thrombin activity ([2]; Log [Macrocycle] M -9.7): 100.7% and 100.1% and 99.6%
- % thrombin activity ([2]; Log[Macrocycle] M -4.6): -0.0543% and 1.1% and -0.4%
- % thrombin activity ([2]; Log[Macrocycle] M -4.9): 0.156% and 0.7% and 0.8%
- % thrombin activity ([2]; Log[Macrocycle] M -5.2): 0.8% (2×) and 1.8%
- % thrombin activity ([2]; Log[Macrocycle] M -5.5): 1.9% (2×) and 2.1%
- % thrombin activity ([2]; Log[Macrocycle] M -5.8): 3.9% and 4.1% and 4.6%
- % thrombin activity ([2]; Log[Macrocycle] M -6.1): 7.3% and 6.9% and 7.7%
- % thrombin activity ([2]; Log[Macrocycle] M -6.4): 13.7% and 13.0% and 13.6%
- % thrombin activity ([2]; Log[Macrocycle] M -6.7): 22.7% and 21.8% and 22.6%
- % thrombin activity ([2]; Log[Macrocycle] M -7.0): 35.5% and 35.6% and 37.1%
- % thrombin activity ([2]; Log[Macrocycle] M -7.3): 54.7% and 53.1% and 53.5%
- % thrombin activity ([2]; Log[Macrocycle] M -7.6): 68.7% and 65.3% and 67.8%
- % thrombin activity ([2]; Log[Macrocycle] M -7.9): 81.7% and 81.8% and 83.6%
- % thrombin activity ([2]; Log[Macrocycle] M -8.2): 91.6% and 89.3% and 88.1%
- % thrombin activity ([2]; Log[Macrocycle] M -8.5): 94.7% and 92.6% and 94.4%
- IC50 [2, 4]: 58 nM
- Ki [2, 5]: 45 nM
- IC50 [2, 6]: 59 nM
- Ki [2, 7]: 43 nM
- IC50 [2, 8]: 56 nM
- Ki [2, 9]: 45 nM
- IC50 [2, 10]: 58 nM

Compound: CC(C)C1NC(=O)CCSCSCCNC(=O)C(CNC(=O)c2ccc(Cl)s2)NC(=O)c2cccc(c2)CNC1=O (centres unmarked) [M4]
- % thrombin activity ([2]; Log [Macrocycle] M -4.5): 0.233% and 0.231% and 2.7%
- % thrombin activity ([2]; Log [Macrocycle] M -4.8): 1.1% and 1.5% and 2.1%
- % thrombin activity ([2]; Log [Macrocycle] M -5.1): 2.6% and 3.2% and -2.3%
- % thrombin activity ([2]; Log [Macrocycle] M -5.4): 3.6% and 5.7% and 3.8%
- % thrombin activity ([2]; Log [Macrocycle] M -5.7): 8.1% and 9.4% and 6.2%
- % thrombin activity ([2]; Log [Macrocycle] M -6.0): 12.9% and 16.1% and 11.7%
- % thrombin activity ([2]; Log [Macrocycle] M -6.3): 22.1% and 27.3% and 19.3%
- % thrombin activity ([2]; Log [Macrocycle] M -6.6): 34.1% and 41.1% and 30.9%
- % thrombin activity ([2]; Log [Macrocycle] M -6.9): 55.7% and 58.5% and 45.5%
- % thrombin activity ([2]; Log [Macrocycle] M -7.2): 67.0% and 71.8% and 59.8%
- % thrombin activity ([2]; Log [Macrocycle] M -7.5): 78.0% and 82.2% and 70.6%
- % thrombin activity ([2]; Log [Macrocycle] M -7.8): 96.6% and 99.4% and 81.6%
- % thrombin activity ([2]; Log [Macrocycle] M -8.1): 97.9% and 103.9% and 87.1%
- % thrombin activity ([2]; Log [Macrocycle] M -8.4): 104.8% and 107.0% and 92.8%
- % thrombin activity ([2]; Log [Macrocycle] M -8.7): 103.7% and 107.0% and 93.5%
- % thrombin activity ([2]; Log [Macrocycle] M -9.0): 106.1% and 107.4% and 94.0%
- % thrombin activity ([2]; Log [Macrocycle] M -9.3): 106.8% and 100.7% and 99.2%
- % thrombin activity ([2]; Log [Macrocycle] M -9.6): 107.9% and 105.2% and 99.6%
- IC50 [2, 4]: 108 nM
- IC50 [2, 6]: 119 nM
- Ki ([2]; thrombin, replicate 1, read-out: Ki (nM) Replicate 1): 92 nM
- IC50 [2, 8]: 106 nM
- Ki ([2]; thrombin, replicate 2, read-out: Ki (nM) Replicate 2): 82 nM
- IC50 [2, 10]: 99 nM
- Ki ([2]; thrombin, replicate 3, read-out: Ki (nM) Replicate 3): 76 nM

Compound: CC(C)[C@@H]1NC(=O)CCSSCCNC(=O)[C@H](CNC(=O)c2ccc(Cl)s2)NC(=O)c2cccc(c2)CNC1=O [M3]
- % thrombin activity ([2]; Log [Macrocycle] M -8.8): 98.3% and 97.3% and 97.1%
- % thrombin activity ([2]; Log [Macrocycle] M -9.1): 98.8% and 98.0% and 98.2%
- % thrombin activity ([2]; Log [Macrocycle] M -9.4): 99.9% and 97.2% and 99.1%
- % thrombin activity ([2]; Log [Macrocycle] M -9.7): 93.6% and 99.4% (2×)
- % thrombin activity ([2]; Log[Macrocycle] M -4.6): -0.0344% and 0.5% and 0.739%
- % thrombin activity ([2]; Log[Macrocycle] M -4.9): 0.656% and 1.5% and 1.0%
- % thrombin activity ([2]; Log[Macrocycle] M -5.2): 2.2% and 5.0% and 2.4%
- % thrombin activity ([2]; Log[Macrocycle] M -5.5): 4.8% and 4.9% and 5.3%
- % thrombin activity ([2]; Log[Macrocycle] M -5.8): 9.4% and 9.7% (2×)
- % thrombin activity ([2]; Log[Macrocycle] M -6.1): 17.5% and 15.4% and 16.3%
- % thrombin activity ([2]; Log[Macrocycle] M -6.4): 29.4% and 28.1% and 27.8%
- % thrombin activity ([2]; Log[Macrocycle] M -6.7): 45.2% and 42.3% and 41.8%
- % thrombin activity ([2]; Log[Macrocycle] M -7.0): 60.5% and 58.8% and 57.9%
- % thrombin activity ([2]; Log[Macrocycle] M -7.3): 75.1% and 75.3% and 74.4%
- % thrombin activity ([2]; Log[Macrocycle] M -7.6): 85.8% and 81.9% and 83.6%
- % thrombin activity ([2]; Log[Macrocycle] M -7.9): 92.4% and 87.2% and 91.4%
- % thrombin activity ([2]; Log[Macrocycle] M -8.2): 97.7% and 93.3% and 94.6%
- % thrombin activity ([2]; Log[Macrocycle] M -8.5): 97.5% and 94.4% and 96.1%
- IC50 [2, 4]: 160 nM
- Ki [2, 5]: 134 nM
- IC50 [2, 6]: 170 nM
- Ki [2, 7]: 121 nM
- IC50 [2, 8]: 160 nM
- Ki [2, 9]: 119 nM
- IC50 [2, 10]: 150 nM

Compound: O=C1CCSSCCNC(=O)C(CNC(=O)c2ccc(Cl)s2)NC(=O)c2cccc(c2)CNC(=O)C(Cc2ccccc2)N1 (centres unmarked) [M2]
- % thrombin activity ([2]; Log [Macrocycle] M -8.8): 99.5% and 97.4% and 98.4%
- % thrombin activity ([2]; Log [Macrocycle] M -9.1): 100.1% (2×) and 99.4%
- % thrombin activity ([2]; Log [Macrocycle] M -9.4): 100.7% and 100.1% and 99.7%
- % thrombin activity ([2]; Log [Macrocycle] M -9.7): 100.6% and 99.6% and 99.8%
- % thrombin activity ([2]; Log[Macrocycle] M -4.6): 3.5% and 3.8% and 4.4%
- % thrombin activity ([2]; Log[Macrocycle] M -4.9): 4.9% (2×) and 5.4%
- % thrombin activity ([2]; Log[Macrocycle] M -5.2): 6.7% and 6.5% and 7.1%
- % thrombin activity ([2]; Log[Macrocycle] M -5.5): 9.9% and 8.4% and 9.6%
- % thrombin activity ([2]; Log[Macrocycle] M -5.8): 16.3% and 13.3% and 13.6%
- % thrombin activity ([2]; Log[Macrocycle] M -6.1): 26.3% and 21.4% and 21.2%
- % thrombin activity ([2]; Log[Macrocycle] M -6.4): 42.5% and 32.8% and 34.8%
- % thrombin activity ([2]; Log[Macrocycle] M -6.7): 58.0% and 47.2% and 49.8%
- % thrombin activity ([2]; Log[Macrocycle] M -7.0): 71.8% and 64.0% and 65.5%
- % thrombin activity ([2]; Log[Macrocycle] M -7.3): 83.6% and 77.5% and 79.8%
- % thrombin activity ([2]; Log[Macrocycle] M -7.6): 92.7% and 85.4% and 86.8%
- % thrombin activity ([2]; Log[Macrocycle] M -7.9): 95.0% and 92.0% and 93.5%
- % thrombin activity ([2]; Log[Macrocycle] M -8.2): 99.2% and 94.0% and 94.1%
- % thrombin activity ([2]; Log[Macrocycle] M -8.5): 98.9% and 96.9% and 97.6%
- IC50 [2, 4]: 214 nM
- Ki [2, 5]: 210 nM
- IC50 [2, 6]: 270 nM
- Ki [2, 7]: 138 nM
- IC50 [2, 8]: 179 nM
- Ki [2, 9]: 149 nM
- IC50 [2, 10]: 193 nM
- % thrombin activity, Original screen ([3]; original screen): 6.9%
- % thrombin activity, Repeat screen ([3]; replicate reaction and screen): 6.5%

Compound: NC(=O)c1ccc(Cl)s1 [5-chlorothiophene-2-carboxamide, reference compound]
- Ki ([2]; read-out: Ki thrombin): 380000 nM
